Data published in patent US7863289B2, “Compounds and methods for kinase modulation, and indications therefor” (Plexxikon, Inc., priority 2006, dated 2011).

Columns and labels:
Assay type in all cases: biochemical
B-Raf V600E = B-Raf V600E (Homo sapiens, UniProt P15056, V600E); test: Kinase activity assay, B-Raf V600E; details: under the test conditions employed; read-out: activity toward kinase B-Raf V600E, IC50
From the text: (§1) Assays for the activity of kinases, including, but not limited to, B-Raf, B-Raf V600E, B-Raf […] and c-Raf-1 are known in the art, for example as described in U.S. patent application Ser. No. 11/473,347 (see Iso, PCT publication WO2007002433), the disclosure of which is hereby incorporated by reference in its entirety.

B-Raf = B-Raf (Homo sapiens, UniProt P15056); test: Kinase activity assay, B-Raf; details: under the test conditions employed; read-out: activity toward kinase B-Raf, IC50
From the text: as §1

Kdr = Kdr (Homo sapiens, UniProt P35968); test: Kinase activity assay, Kdr; details: under the test conditions employed; read-out: activity toward kinase Kdr, IC50
From the text: as §1

Src = Src (Homo sapiens, UniProt P12931); test: Kinase activity assay, Src; details: under the test conditions employed; read-out: activity toward kinase Src, IC50
From the text: as §1

c-Raf-1 = c-Raf-1 (Homo sapiens, UniProt P04049); test: Kinase activity assay, c-Raf-1; details: under the test conditions employed; read-out: activity toward kinase c-Raf-1, IC50
From the text: as §1

Kit = Kit (Homo sapiens, UniProt P10721); test: Kinase activity assay, Kit; details: under the test conditions employed; read-out: activity toward kinase Kit, IC50
From the text: as §1

Measured: IC50

Sequence of B-Raf V600E (P15056 whole entry V600E): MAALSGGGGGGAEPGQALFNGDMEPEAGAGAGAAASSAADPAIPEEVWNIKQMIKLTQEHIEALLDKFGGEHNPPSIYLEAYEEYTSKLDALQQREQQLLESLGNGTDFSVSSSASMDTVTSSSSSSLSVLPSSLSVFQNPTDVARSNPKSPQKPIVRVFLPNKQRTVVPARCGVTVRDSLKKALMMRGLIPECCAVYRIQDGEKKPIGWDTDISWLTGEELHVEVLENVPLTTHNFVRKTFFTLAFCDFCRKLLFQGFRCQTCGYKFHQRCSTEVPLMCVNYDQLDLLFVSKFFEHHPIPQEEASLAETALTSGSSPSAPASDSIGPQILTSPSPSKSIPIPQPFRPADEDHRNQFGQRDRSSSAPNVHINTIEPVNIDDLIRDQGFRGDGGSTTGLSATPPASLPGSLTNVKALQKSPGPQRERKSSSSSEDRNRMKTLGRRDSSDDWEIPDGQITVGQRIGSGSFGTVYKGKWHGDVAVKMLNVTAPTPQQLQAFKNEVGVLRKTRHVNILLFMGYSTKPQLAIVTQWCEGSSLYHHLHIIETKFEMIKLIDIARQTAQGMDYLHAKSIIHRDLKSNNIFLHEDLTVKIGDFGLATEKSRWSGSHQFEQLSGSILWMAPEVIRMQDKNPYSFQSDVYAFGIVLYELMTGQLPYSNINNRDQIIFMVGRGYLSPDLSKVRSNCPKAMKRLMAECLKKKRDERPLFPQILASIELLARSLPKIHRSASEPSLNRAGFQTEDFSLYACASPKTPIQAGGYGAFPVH
Sequence of Kit (P10721 26-976): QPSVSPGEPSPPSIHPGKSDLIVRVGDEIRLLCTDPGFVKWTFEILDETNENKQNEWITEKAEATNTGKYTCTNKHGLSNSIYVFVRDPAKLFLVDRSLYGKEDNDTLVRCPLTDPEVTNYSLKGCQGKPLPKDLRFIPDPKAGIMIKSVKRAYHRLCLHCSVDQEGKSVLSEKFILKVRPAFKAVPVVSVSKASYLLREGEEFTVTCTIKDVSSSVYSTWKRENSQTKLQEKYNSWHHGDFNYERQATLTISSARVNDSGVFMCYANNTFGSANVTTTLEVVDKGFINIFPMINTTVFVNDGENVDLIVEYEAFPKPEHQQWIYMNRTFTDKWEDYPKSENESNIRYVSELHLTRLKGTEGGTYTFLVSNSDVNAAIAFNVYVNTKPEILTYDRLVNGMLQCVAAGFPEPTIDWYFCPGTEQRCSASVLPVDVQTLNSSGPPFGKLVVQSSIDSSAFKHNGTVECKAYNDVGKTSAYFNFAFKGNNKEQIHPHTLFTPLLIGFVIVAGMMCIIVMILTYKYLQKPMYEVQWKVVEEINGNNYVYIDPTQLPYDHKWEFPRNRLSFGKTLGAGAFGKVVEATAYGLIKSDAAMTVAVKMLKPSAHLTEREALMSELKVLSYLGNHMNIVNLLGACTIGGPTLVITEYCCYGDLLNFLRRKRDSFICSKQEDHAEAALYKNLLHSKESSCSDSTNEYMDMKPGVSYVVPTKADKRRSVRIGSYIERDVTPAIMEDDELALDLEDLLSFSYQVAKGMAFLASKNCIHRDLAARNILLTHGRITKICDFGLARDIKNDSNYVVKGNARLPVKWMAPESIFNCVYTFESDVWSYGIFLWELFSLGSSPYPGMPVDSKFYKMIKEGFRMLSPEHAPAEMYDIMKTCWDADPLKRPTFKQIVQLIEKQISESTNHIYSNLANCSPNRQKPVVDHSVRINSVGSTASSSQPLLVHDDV
Sequence of Kdr (P35968 20-1356): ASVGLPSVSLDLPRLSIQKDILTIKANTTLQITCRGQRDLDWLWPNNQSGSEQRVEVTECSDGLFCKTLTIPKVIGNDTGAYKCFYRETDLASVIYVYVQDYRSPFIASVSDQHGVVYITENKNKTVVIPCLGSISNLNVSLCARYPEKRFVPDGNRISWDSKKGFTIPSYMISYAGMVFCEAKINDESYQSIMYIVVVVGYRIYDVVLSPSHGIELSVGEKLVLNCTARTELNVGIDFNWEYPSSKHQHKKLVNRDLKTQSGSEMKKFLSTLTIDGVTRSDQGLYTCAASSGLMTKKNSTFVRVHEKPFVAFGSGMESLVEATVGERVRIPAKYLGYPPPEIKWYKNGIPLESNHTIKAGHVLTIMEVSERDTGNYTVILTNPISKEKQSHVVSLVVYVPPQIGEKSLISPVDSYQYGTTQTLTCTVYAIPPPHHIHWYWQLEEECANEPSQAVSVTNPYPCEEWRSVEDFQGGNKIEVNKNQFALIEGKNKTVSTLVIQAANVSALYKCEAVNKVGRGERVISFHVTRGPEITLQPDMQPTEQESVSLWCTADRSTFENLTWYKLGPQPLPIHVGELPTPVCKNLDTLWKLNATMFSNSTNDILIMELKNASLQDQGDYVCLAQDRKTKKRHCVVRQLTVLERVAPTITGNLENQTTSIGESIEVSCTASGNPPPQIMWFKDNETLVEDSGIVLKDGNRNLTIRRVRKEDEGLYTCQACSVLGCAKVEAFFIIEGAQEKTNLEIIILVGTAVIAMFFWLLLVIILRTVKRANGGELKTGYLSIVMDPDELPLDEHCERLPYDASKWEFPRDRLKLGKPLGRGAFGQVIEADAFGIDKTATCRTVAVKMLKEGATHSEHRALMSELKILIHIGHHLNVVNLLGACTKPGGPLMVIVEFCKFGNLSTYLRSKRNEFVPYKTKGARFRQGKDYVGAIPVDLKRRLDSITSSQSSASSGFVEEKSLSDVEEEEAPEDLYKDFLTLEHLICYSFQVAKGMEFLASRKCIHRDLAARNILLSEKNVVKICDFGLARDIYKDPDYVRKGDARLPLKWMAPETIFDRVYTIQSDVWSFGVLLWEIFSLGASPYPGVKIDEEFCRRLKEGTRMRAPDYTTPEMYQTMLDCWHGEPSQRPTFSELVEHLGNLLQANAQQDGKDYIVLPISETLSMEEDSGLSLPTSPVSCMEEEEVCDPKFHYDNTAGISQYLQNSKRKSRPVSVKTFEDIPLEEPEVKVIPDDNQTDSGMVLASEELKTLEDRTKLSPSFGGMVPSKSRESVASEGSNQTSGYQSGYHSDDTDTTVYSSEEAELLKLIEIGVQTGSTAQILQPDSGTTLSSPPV
Sequence of Src (P12931 whole entry): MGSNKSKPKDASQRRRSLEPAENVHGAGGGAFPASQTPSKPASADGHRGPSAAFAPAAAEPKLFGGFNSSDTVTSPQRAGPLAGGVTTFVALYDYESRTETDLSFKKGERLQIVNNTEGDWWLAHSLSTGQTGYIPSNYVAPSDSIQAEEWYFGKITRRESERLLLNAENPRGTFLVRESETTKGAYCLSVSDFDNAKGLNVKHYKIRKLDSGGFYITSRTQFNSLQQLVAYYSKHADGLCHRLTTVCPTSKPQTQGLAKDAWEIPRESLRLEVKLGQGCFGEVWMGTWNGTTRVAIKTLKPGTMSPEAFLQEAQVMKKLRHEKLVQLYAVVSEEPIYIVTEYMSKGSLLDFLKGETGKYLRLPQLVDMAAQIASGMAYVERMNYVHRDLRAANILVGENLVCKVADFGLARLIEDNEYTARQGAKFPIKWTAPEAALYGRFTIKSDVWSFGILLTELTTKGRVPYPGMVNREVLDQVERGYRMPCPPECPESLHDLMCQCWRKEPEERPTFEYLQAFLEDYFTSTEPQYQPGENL
Sequence of c-Raf-1 (P04049 whole entry): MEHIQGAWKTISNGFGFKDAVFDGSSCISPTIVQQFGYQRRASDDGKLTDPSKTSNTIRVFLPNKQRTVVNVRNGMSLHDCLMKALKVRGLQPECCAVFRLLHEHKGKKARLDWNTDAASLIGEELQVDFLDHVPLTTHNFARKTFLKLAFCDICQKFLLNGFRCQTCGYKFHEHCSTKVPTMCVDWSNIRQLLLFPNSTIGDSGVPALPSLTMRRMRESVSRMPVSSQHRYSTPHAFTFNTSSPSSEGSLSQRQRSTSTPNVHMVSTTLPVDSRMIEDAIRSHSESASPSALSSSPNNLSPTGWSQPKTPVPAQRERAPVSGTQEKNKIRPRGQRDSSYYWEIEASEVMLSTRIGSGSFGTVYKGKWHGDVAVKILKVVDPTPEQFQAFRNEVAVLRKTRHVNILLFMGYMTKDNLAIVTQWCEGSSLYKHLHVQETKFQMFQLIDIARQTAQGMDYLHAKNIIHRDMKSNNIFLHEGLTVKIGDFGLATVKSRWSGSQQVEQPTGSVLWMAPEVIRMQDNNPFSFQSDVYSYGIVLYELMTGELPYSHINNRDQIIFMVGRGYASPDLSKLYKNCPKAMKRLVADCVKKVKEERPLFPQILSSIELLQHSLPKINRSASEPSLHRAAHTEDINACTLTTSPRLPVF
Sequence of B-Raf (P15056 whole entry): as the sequence (P15056 whole entry V600E) above, with E600V counted along it

COC(=O)CCc1cnc2[nH]cc(C(=O)c3c(F)ccc(NS(=O)(=O)c4ccc(C(F)(F)F)cc4)c3F)c2c1 [Compound P-0033, 3-{3-[2,6-difluoro-3-(4-trifluoromethyl-benzenesulfonylamino)-benzoyl]-1H-pyrrolo[2,3-b]pyridin-5-yl}-propionic acid methyl ester]
≤ 10 µM: B-Raf V600E | B-Raf

O=C(O)c1cccc(S(=O)(=O)Nc2ccc(F)c(C(=O)c3c[nH]c4ncc(Cl)cc34)c2F)c1 [Compound P-0004, 3-[3-(5-Chloro-1H-pyrrolo[2,3-b]pyridine-3-carbonyl)-2,4-difluoro-phenylsulfamoyl]-benzoic acid]
≤ 10 µM: Kdr | Src

Cc1cnc2[nH]cc(C(=O)c3c(F)ccc(NS(=O)(=O)c4ccc(C(F)(F)F)cc4)c3F)c2c1 [Compound P-0030, N-[2,4-Difluoro-3-(5-methyl-1H-pyrrolo[2,3-b]pyridine-3-carbonyl)-phenyl]-4-trifluoromethyl-benzenesulfonamide]
≤ 10 µM: B-Raf V600E | c-Raf-1 | B-Raf

Cn1ccc(S(=O)(=O)Nc2ccc(F)c(C(=O)c3c[nH]c4ncc(Cl)cc34)c2F)n1 [Compound P-0029, 1-Methyl-1H-pyrazole-3-sulfonic acid [3-(5-chloro-1H-pyrrolo[2,3-b]pyridine-3-carbonyl)-2,4-difluoro-phenyl]-amide]
≤ 10 µM: B-Raf V600E | Kdr | Src | Kit

COc1cnc2[nH]cc(C(=O)c3c(F)ccc(NS(=O)(=O)c4ccccn4)c3F)c2c1 [Compound P-0036, Pyridine-2-sulfonic acid [2,4-difluoro-3-(5-methoxy-1H-pyrrolo[2,3-b]pyridine-3-carbonyl)-phenyl]-amide]
≤ 10 µM: Src | B-Raf

Cc1ccc2sc(S(=O)(=O)Nc3ccc(F)c(C(=O)c4c[nH]c5ncc(Cl)cc45)c3F)cc2c1 [Compound P-0017, 5-Methyl-benzo[b]thiophene-2-sulfonic acid [3-(5-chloro-1H-pyrrolo[2,3-b]pyridine-3-carbonyl)-2,4-difluoro-phenyl]-amide]
not listed: Kdr
≤ 10 µM: all other assays above

COC(=O)/C=C/c1cnc2[nH]cc(C(=O)c3c(F)ccc(NS(=O)(=O)c4ccc(C(F)(F)F)cc4)c3F)c2c1 [Compound P-0032, (E)-3-{3-[2,6-Difluoro-3-(4-trifluoromethyl-benzenesulfonylamino)-benzoyl]-1H-pyrrolo[2,3-b]pyridin-5-yl}-acrylic acid methyl ester]
≤ 10 µM: B-Raf V600E | Kdr | B-Raf | Kit

O=C(O)CCc1cnc2[nH]cc(C(=O)c3c(F)ccc(NS(=O)(=O)c4ccc(C(F)(F)F)cc4)c3F)c2c1 [Compound P-0034, 3-{3-[2,6-difluoro-3-(4-trifluoromethyl-benzenesulfonylamino)-benzoyl]-1H-pyrrolo[2,3-b]pyridin-5-yl}-propionic acid]
≤ 10 µM: B-Raf V600E | Kdr | B-Raf

CCCCOc1ccc(S(=O)(=O)Nc2ccc(F)c(C(=O)c3c[nH]c4ncc(Cl)cc34)c2F)cc1 [Compound P-0007, 4-Butoxy-N-[3-(5-chloro-1H-pyrrolo[2,3-b]pyridine-3-carbonyl)-2,4-difluoro-phenyl]-benzenesulfonamide]
≤ 10 µM: B-Raf V600E | c-Raf-1 | B-Raf | Kit
